The source made the active and inactive calls. The rule behind the calls is not given here.
Columns and labels:
[1] = tested on: Mus musculus; test: Anticonvulsant activity in Mus musculus CF1 (mouse) assessed as protection against maximal electroshock-induced seizures at 100 to 300 mg/kg measured after 0.5 hr; assay type: functional
[2] = tested on: Mus musculus; test: Anticonvulsant activity in Mus musculus CF1 (mouse) assessed as protection against subcutaneous pentylenetetrazol-induced seizures at 100 to 300 mg/kg; assay type: functional, organism-based
[3] = biological target: GABA-A receptor; agonist GABA site (Homo sapiens) (UniProt P14867+P47870+P28472+P48169+P34903+P18505+P47869+P31644+Q16445); test: Displacement of [3H]TBOB from GABAA receptor (unknown origin) at 10 uM; assay type: protein-complex assay
[4] = tested on: Mus musculus; test: Anticonvulsant activity in Mus musculus CF1 (mouse) assessed as protection against maximal electroshock-induced seizures at 300 mg/kg; assay type: functional, organism-based; design: dose 300 mg/kg
[5] = tested on: Mus musculus; test: Neurotoxicity in Mus musculus CF1 (mouse) at 300 mg/kg by rotorod test; assay type: toxicity, organism-based; design: dose 300 mg/kg; settings: in vivo
[6] = tested on: Mus musculus; test: (§1) Neurotoxicity in Mus musculus CF1 (mouse) at 100 to 300 mg/kg by rotorod test; assay type: toxicity, organism-based; design: dose 100-300 mg/kg; settings: mouse, in vivo
[7] = tested on: Mus musculus; test: Anticonvulsant activity in Mus musculus CF1 (mouse) assessed as protection against maximal electroshock-induced seizures at 100 to 300 mg/kg measured after 4 hr; assay type: functional
[8] = as §1; assay type: toxicity, organism-based; design: dose 100-300 mg/kg; settings: CF1, mouse, in vivo
[9] = tested on: Mus musculus; test: Anticonvulsant activity in Mus musculus CF1 (mouse) assessed as protection against subcutaneous pentylenetetrazol-induced seizures at 300 mg/kg; assay type: functional, organism-based; design: dose 300 mg/kg
[10] = tested on: Mus musculus; test: Anticonvulsant activity in Mus musculus CF1 (mouse) assessed as protection against subcutaneous pentylenetetrazol-induced seizures; assay type: functional

What does the source list for `CCCCCCCC(=O)NCCC1CC(CC)(CC)C(=O)O1` (centres undefined)?
Activity [1]: inactive; Activity [2]: inactive

What does the source list for `CCC1(CC)CC(CCOC(=O)c2ccc(OC)cc2)OC1=O` (centres undefined)?
Activity [1]: inactive; Activity [2]: inactive

With `CCC1(CC)CC(CCNC(=O)c2ccccc2)OC1=O` (centres undefined) as the compound, how does the inhibition [3] read?
The inhibition was 0.29%.

What about the Activity [1] of the same compound?
Its Activity is “inactive”.

And the Activity [2]?
The Activity was “inactive”.

And the Activity [4]?
Its Activity is “Active”.

Which results are given for `CCC1(CC)CC(CCOC(=O)c2ccc(Br)cc2)OC1=O` (centres undefined)?
Activity [5]: Toxic; Activity [1]: inactive; Activity [2]: inactive

Which Activity [6] does the source give for `CCC(=O)OCC1CC(CC)(CC)C(=O)O1` (centres undefined) here?
The Activity was “Non-toxic”.

And the Activity [1]?
Its Activity is “inactive”.

What about the Activity [2] of the same compound?
The Activity was “inactive”.

And the Activity [7]?
Its Activity is “inactive”.

Which Activity [1] does the source give for `CCC(=O)OCCC1CC(CC)(CC)C(=O)O1` (centres undefined) here?
The Activity was “inactive”.

What about the Activity [2] of the same compound?
The Activity was “inactive”.

What does the source list for `CCC1(CC)CC(CCOC(=O)c2ccccc2)OC1=O` (centres undefined)?
inhibition [3]: 3.86%; Activity [1]: inactive; Activity [2]: inactive

Which inhibition [3] does the source give for `CCC1(CC)CC(CO)OC1=O` (centres undefined) here?
The inhibition was 9.1%.

Which results are given for `CCCCCCCC(=O)OCC1CC(CC)(CC)C(=O)O1` (centres undefined)?
Activity [6]: Non-toxic; Activity [1]: inactive; Activity [2]: inactive; Activity [7]: inactive

Which results are given for `CCC1(CC)CC(CNC(=O)c2ccc(Br)cc2)OC1=O` (centres undefined)?
TD50 [8]: 285 mg/kg; ED50 ([1]; CF1, 0.5 h, dose mg/kg 100-300): 89.9 mg/kg; ED50 ([7]; CF1, 4 h, dose mg/kg 100-300): 89.9 mg/kg

Which results are given for `CCC1(CC)CC(COC(=O)c2ccccc2)OC1=O` (centres undefined)?
Activity [6]: Non-toxic; inhibition [3]: 12.5%; Activity [1]: inactive; Activity [2]: inactive; Activity [7]: inactive

What does the source list for `CCC1(CC)CC(CCNC(=O)c2ccc(OC)cc2)OC1=O` (centres undefined)?
Activity [1]: inactive; Activity [2]: inactive

Which Activity [1] does the source give for `CCCCCCCC(=O)OCCC1CC(CC)(CC)C(=O)O1` (centres undefined) here?
Its Activity is “inactive”.

And the Activity [2]?
Its Activity is “inactive”.

With `CCC1(CC)CC(COC(=O)c2ccc(C)cc2)OC1=O` (centres undefined) as the compound, how does the Activity [6] read?
The Activity was “Non-toxic”.

And the Activity [1]?
Its Activity is “inactive”.

And the Activity [2]?
The Activity was “inactive”.

And the Activity [7]?
The Activity was “inactive”.

Which Activity [6] does the source give for `CCC1(CC)CC(COC(=O)c2ccc(Br)cc2)OC1=O` (centres undefined) here?
Its Activity is “Non-toxic”.

And the Activity [1]?
Its Activity is “inactive”.

What about the Activity [2] of the same compound?
The Activity was “inactive”.

What about the Activity [7] of the same compound?
The Activity was “inactive”.

Which inhibition [3] does the source give for `CCC(=O)NCCC1CC(CC)(CC)C(=O)O1` (centres undefined) here?
Its inhibition is 3.62%.

What about the Activity [1] of the same compound?
The Activity was “inactive”.

What about the Activity [2] of the same compound?
Its Activity is “inactive”.

For `CCC1(CC)CC(CCOC(=O)c2ccc(C)cc2)OC1=O` (centres undefined), which Activity [9] is on record?
Its Activity is “Active”.

What about the Activity [1] of the same compound?
The Activity was “inactive”.

What about the Activity [2] of the same compound?
Its Activity is “inactive”.

Which Activity [1] does the source give for `CCC1(CC)CC(CCNC(=O)c2ccc(Br)cc2)OC1=O` (centres undefined) here?
The Activity was “inactive”.

And the Activity [2]?
The Activity was “inactive”.

With `CCC1(CC)CC(CCNC(=O)c2ccc(C)cc2)OC1=O` (centres undefined) as the compound, how does the Activity [1] read?
Its Activity is “inactive”.

What about the Activity [2] of the same compound?
The Activity was “inactive”.

Which Activity [10] does the source give for `CCC1(CC)CC(COC(=O)c2ccc(OC)cc2)OC1=O` (centres undefined) here?
Its Activity is 300 mg/kg.

What about the Activity [6] of the same compound?
Its Activity is “Non-toxic”.

And the Activity [1]?
Its Activity is “inactive”.

What about the Activity [7] of the same compound?
The Activity was “inactive”.

— ChEMBL document CHEMBL3046958, “Synthesis and Evaluation of Homologous Analogs of Anticonvulsant 5-Substituted 3,3-Diethyl-4,5-Dighdro-2(3H)-Furanones” (Med Chem Res, 2005)
